{
  "source": "patent US20140141213A1",
  "about": "“PHOTOCURABLE INK COMPOSITION, INK JET RECORDING METHOD, RECORDED MATTER, INK SET, INK CARTRIDGE, AND RECORDING APPARATUS” (Seiko Epson Corporation, priority 2009, published 2014)",
  "origin": "cited, not measured here",
  "data": [
    {"settings": "primary irritation index", "values": [
      {"molecule": "C=C(C)C(=O)OCCCCCCOC(=O)C(=C)C", "note": "[1,6-Hexanediol dimethacrylate]", "P.I.I": 0.5},
      {"molecule": "C=CC(=O)OCCCCCCCCCOC(=O)C=C", "note": "[1,9-Nonanediol diacrylate]", "P.I.I": 2.0},
      {"molecule": "C=C(C)C(=O)OCC(O)COC(=O)C(=C)C", "note": "[2-Hydroxy-1,3-dimethacryloxypropane]", "P.I.I": 0.6},
      {"molecule": "C=CC(=O)OCC1COC(C)(CC)O1", "note": "(centres unmarked) [(2-Methyl-2-ethyl-1,3-dioxolane-4-yl)methyl acrylate]", "P.I.I": 1.3},
      {"molecule": "C=CC(=O)OCC1COC(C)(CC(C)C)O1", "note": "(centres unmarked) [(2-Methyl-2-isobutyl-1,3-dioxolane-4-yl)methyl acrylate]", "P.I.I": 1.0},
      {"molecule": "C=C(C)C(=O)OCCOCCOC(=O)C(=C)C", "note": "[Diethylene glycol dimethacrylate]", "P.I.I": 0.5},
      {"molecule": "C=C(C)C(=O)OCCOC(=O)C(=C)C", "note": "[Ethylene glycol dimethacrylate]", "P.I.I": 0.6},
      {"molecule": "C=CC(=O)O[C@@H]1C[C@H]2CC[C@]1(C)C2(C)C", "note": "[Isobornyl acrylate]", "P.I.I": 0.6},
      {"molecule": "C=CC(=O)OCCOCCOC", "note": "[Methoxy diethylene glycol monoacrylate]", "P.I.I": 0.7},
      {"molecule": "C=C(C)C(=O)OCC(C)(C)COC(=O)C(=C)C", "note": "[Neopentyl glycol dimethacrylate]", "P.I.I": 0.0},
      {"molecule": "C=CC(=O)OCCOc1ccccc1", "note": "[Phenoxyethyl acrylate]", "P.I.I": 1.7},
      {"molecule": "C=C(C)C(=O)OCCOCCOCCOCCOC(=O)C(=C)C", "note": "[Tetraethylene glycol dimethacrylate]", "P.I.I": 0.5},
      {"molecule": "C=C(C)C(=O)OCC(CC)(COC(=O)C(=C)C)COC(=O)C(=C)C", "note": "[Trimethylolpropane trimethacrylate]", "P.I.I": 0.8},
      {"molecule": "C=CC(=O)OCC(C)OCC(C)OCC(C)OC(=O)C=C", "note": "(centres unmarked) [Tripropylene glycol diacrylate]", "P.I.I": 1.6},
      {"molecule": "Polyethylene glycol #400 diacrylate", "P.I.I": 0.4},
      {"molecule": "Trimethylolpropane PO-modified triacrylate", "P.I.I": 0.1},
      {"molecule": "Trimethylolpropane-modified triacrylate", "P.I.I": 1.5}
    ]}
  ]
}
